Measured values from patent US10744209B2, “Biodegradable polymeric nanoparticle conjugates and use thereof” (NEW YORK UNIVERSITY, priority 2015, dated 2020).

Tests used:
[1] = cited from earlier work
[2] = system: RAW264.7 cells; assay: RANKL-induced osteoclast differentiation, TRAP staining; format: cell-based; settings: 50 ng/ml RANKL; CGS21680 10^−6M; four days
Protocol: Tartrate-resistant acid phosphatase (TRAP) staining was carried out. The number of TRAP-positive MNCs containing ≥3 nuclei/cell was scored.

| Structure (SMILES) | half-life in vivo [1] | RANKL-induced osteoclast differentiation [2] |
| --- | --- | --- |
| Nc1ncnc2c1ncn2[C@@H]1O[C@H](CO)[C@@H](O)[C@H]1O [Adenosine, adenosine] | < 10 s | – |
| CCNC(=O)[C@H]1O[C@@H](n2cnc3c(N)nc(NCCc4ccc(CCC(=O)O)cc4)nc32)[C@H](O)[C@@H]1O [CGS21680] | – | block |
